Results from patent publication US12071411B2, “Inhibitors of HIF-2α and methods of use thereof” (ARCUS BIOSCIENCES, INC., priority 2021, dated 2024).

Experiments:
HIF-2α [1] = biological target: T1, HIF-2α (Homo sapiens, UniProt Q99814); assay: HIF-2α Luciferase Reporter Assay (serum), HRE-luciferase 786-0 cells in 100% human serum; assay type: cell-based; details: for IC50: 100% human serum, 786-0 reporter cells, overnight incubation, read-out: Serum Potency; for Serum Shift (approximate): ratio of IC50 in 100% serum to IC50 in serum free conditions
Summary of the method: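 786-0 cells stably expressing an HRE-luciferase reporter were plated and rested 3 h. They were then treated overnight at 37 °C with compound diluted in 100% human serum. Serum was replaced with Opti-MEM, ONE-Glo luminescence was read, and IC50 came from a 4-parameter logistic fit.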

HIF-2α [2] = biological target: T1, HIF-2α; assay: HIF-2α Luciferase Reporter Assay (serum free) in HIF-Luc-786-0 cells; assay type: cell-based; details: Opti-MEM, 786-0 reporter cells, 20 hours incubation
Summary of the method: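 786-0 cells stably transduced with HIF luciferase reporter, 20,000 cells/well in serum-free Opti-MEM, compounds (50 uM downward, 1% DMSO) 20 h at 37 °C. ONE-Glo luminescence normalized to DMSO and no-cell controls; IC50 from four-parameter fit.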

T1 sequence (Q99814 whole entry): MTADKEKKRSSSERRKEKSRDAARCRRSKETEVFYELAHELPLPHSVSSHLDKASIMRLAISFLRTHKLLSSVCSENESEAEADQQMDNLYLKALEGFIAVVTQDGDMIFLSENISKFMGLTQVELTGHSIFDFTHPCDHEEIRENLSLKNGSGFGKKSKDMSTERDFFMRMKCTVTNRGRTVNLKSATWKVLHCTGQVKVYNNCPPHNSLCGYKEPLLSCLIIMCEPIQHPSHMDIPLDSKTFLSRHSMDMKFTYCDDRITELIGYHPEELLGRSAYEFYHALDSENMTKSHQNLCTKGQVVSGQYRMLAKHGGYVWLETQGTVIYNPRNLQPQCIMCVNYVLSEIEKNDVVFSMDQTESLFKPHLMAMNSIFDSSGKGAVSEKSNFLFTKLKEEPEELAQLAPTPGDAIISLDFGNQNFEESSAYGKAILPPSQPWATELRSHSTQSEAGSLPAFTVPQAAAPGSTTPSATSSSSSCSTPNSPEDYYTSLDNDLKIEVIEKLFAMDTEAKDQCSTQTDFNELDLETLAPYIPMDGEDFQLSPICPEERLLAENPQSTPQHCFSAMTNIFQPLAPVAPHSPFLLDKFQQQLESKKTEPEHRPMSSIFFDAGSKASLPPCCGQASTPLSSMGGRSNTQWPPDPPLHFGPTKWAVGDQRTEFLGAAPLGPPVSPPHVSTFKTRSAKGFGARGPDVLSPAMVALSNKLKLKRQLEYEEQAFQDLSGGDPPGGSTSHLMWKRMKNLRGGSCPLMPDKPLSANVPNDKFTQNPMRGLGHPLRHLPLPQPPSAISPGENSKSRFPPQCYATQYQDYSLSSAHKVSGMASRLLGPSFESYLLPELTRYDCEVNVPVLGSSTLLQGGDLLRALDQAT

Compound | IC50 (HIF-2α [1]) [nM] | Serum Shift (approximate) (HIF-2α [1]) | IC50 (HIF-2α [2]) [nM]
O[C@H]1c2c(C(F)(F)F)nn([C@@H]3C[C@@H](F)[C@@H](F)[C@@H](F)C3)c2[C@H](F)C1(F)F (single isomer, unassigned) [146/147 DIAST-1] | < 100 | 5 | < 100
O[C@H]1c2c(C(F)(F)F)nn(C3CC4(C3)CC(F)(F)C4)c2C[C@H]1F [Example 67, (4S,5R)-1-{6,6-difluorospiro[3.3]heptan-2-yl}-5-fluoro-3-(trifluoromethyl)-4,6-dihydrocyclopenta[c]pyrazol-4-ol] | 100 to 1000 | 7 | 100 to 1000
O[C@H]1c2c(C(F)(F)F)nn([C@H]3CC[C@H](OC(F)F)C3)c2CC1(F)F (racemic) [Example 110, (4S)-1-[(1R,3R)-3-(difluoromethoxy)cyclopentyl]-5,5-difluoro-3-(trifluoromethyl)-1H,4H,5H,6H-cyclopenta[c]pyrazol-4-ol and (4S)-1-[(1S,3S)-3-(difluoromethoxy)cyclopentyl]-5,5-difluoro-3-(trifluoromethyl)-1H,4H,5H,6H-cyclopenta[c]pyrazol-4-ol] | > 1000 | 225 | < 100
C[C@@H](C#N)CCn1nc(C(F)(F)F)c2c1CCC(F)(F)[C@H]2O [Example 99, (2R)-4-[(4S)-5,5-difluoro-4-hydroxy-3-(trifluoromethyl)-6,7-dihydro-4H-indazol-1-yl]-2-methylbutanenitrile] | 100 to 1000 | 3 | < 100
O[C@H]1c2c(C(F)(F)F)nn(CCc3ccoc3)c2CC1(F)F [Example 78, (4S)-5,5-difluoro-1-[2-(furan-3-yl)ethyl]-3-(trifluoromethyl)-1H,4H,5H,6H-cyclopenta[c]pyrazol-4-ol] | > 1000 | 8 | < 100
CC(CCn1nc(C(F)(F)F)c2c1CCC(F)(F)[C@H]2O)OC(F)(F)F (stereo partly drawn) [Example 14, (4S)-5,5-difluoro-1-[3-(trifluoromethoxy)butyl]-3-(trifluoromethyl)-6,7-dihydro-4H-indazol-4-ol] | < 100 | 6 | < 100
O[C@H]1c2c(C(F)(F)F)nn([C@@H]3CCC[C@H](OC(F)F)C3)c2CC1(F)F (racemic) [Example 112, (4S)-1-[(1R,3S)-3-(difluoromethoxy)cyclohexyl]-5,5-difluoro-3-(trifluoromethyl)-1H,4H,5H,6H-cyclopenta[c]pyrazol-4-ol and (4S)-1-[(1S,3R)-3-(difluoromethoxy)cyclohexyl]-5,5-difluoro-3-(trifluoromethyl)-1H,4H,5H,6H-cyclopenta[c]pyrazol-4-ol] | > 1000 | 17 | < 100
O[C@H]1c2c(C(F)(F)F)nn([C@H]3C[C@@H](F)[C@@H](F)[C@@H](F)C3)c2CC1(F)F (mixture of isomers) [Example 88, (4S)-5,5-difluoro-1-[(3R,5S)-3,4,5-trifluorocyclohexyl]-3-(trifluoromethyl)-4,6-dihydrocyclopenta[c]pyrazol-4-ol] | 100 to 1000 | 6 | < 100
O[C@H]1c2c(C(F)(F)F)nn(-c3ccc(Cl)cc3)c2CC1(F)F [Example 116, (4S)-1-(4-chlorophenyl)-5,5-difluoro-3-(trifluoromethyl)-4,6-dihydrocyclopenta[c]pyrazol-4-ol] | > 1000 | 73 | < 100
CO[C@H](CCn1nc(C(F)(F)F)c2c1[C@H](F)C(F)(F)[C@H]2O)C(F)(F)F (single isomer, unassigned) [148/149 DIAST-1] | < 100 | 9 | < 100
O[C@H]1c2c(C(F)(F)F)nn([C@@H]3CC[C@@H](F)[C@@H](F)C3)c2[C@@H](F)C1(F)F [Example 156, (4S,6R)-1-[(1R,3S,4R)-3,4-difluorocyclohexyl]-5,5,6-trifluoro-3-(trifluoromethyl)-4,6-dihydrocyclopenta[c]pyrazol-4-ol] | 100 to 1000 | 8 | < 100
O[C@H]1c2c(C(F)(F)F)nn([C@@H]3CCC[C@H](C(F)(F)F)C3)c2CC1(F)F [Example 82, (4S)-5,5-difluoro-3-(trifluoromethyl)-1-[(1R,3S)-3-(trifluoromethyl)cyclohexyl]-1H,4H,5H,6H-cyclopenta[c]pyrazol-4-ol] | > 1000 | 23 | 100 to 1000
O[C@H]1c2c(C(F)(F)F)nn([C@@H]3CCC[C@@H](C(F)(F)F)C3)c2CC1(F)F [Example 80, (4S)-5,5-difluoro-3-(trifluoromethyl)-1-[(1R)-3-(trifluoromethyl)cyclohexyl]-1H,4H,5H,6H-cyclopenta[c]pyrazol-4-ol] | > 1000 | >41 | 100 to 1000
CC(CCn1nc(C(F)(F)F)c2c1CCC(F)(F)[C@H]2O)OC(F)F (stereo partly drawn) [Example 15, (4S)-1-[3-(difluoromethoxy)butyl]-5,5-difluoro-3-(trifluoromethyl)-6,7-dihydro-4H-indazol-4-ol] | < 100 | 6 | < 100
C[C@H](OC(F)F)[C@H]1C[C@H](n2nc(C(F)(F)F)c3c2CC(F)(F)[C@H]3O)C1 [Example 106, (4S)-1-[3-[(1S)-1-(difluoromethoxy)ethyl]cyclobutyl]-5,5-difluoro-3-(trifluoromethyl)-4,6-dihydrocyclopenta[c]pyrazol-4-ol] | 100 to 1000 | 1 | 100 to 1000
O[C@H]1c2c(C(F)(F)F)nn(-c3ccc(F)c(F)c3)c2CC1(F)F [Example 115] | > 1000 | 45 | 100 to 1000
O[C@H]1c2c(C(F)(F)F)nn([C@@H]3CC[C@@H](F)C[C@H]3F)c2CC1(F)F (single isomer, unassigned) [97/98 DIAST-1] | > 1000 | 23 | 100 to 1000
O[C@H]1c2c(C(F)(F)F)nn([C@H]3C[C@@H](F)[C@@H](F)[C@@H](F)C3)c2[C@@H](F)[C@H]1F [Example 143, (4S,5S,6R)-5,6-difluoro-1-[(3R,5S)-3,4,5-trifluorocyclohexyl]-3-(trifluoromethyl)-5,6-dihydro-4H-cyclopenta[c]pyrazol-4-ol] | > 1000 | 9 | 100 to 1000
O[C@H]1c2c(C(F)(F)F)nn(CCc3cccc(F)c3)c2CC1(F)F [Example 79, (4S)-5,5-difluoro-1-[2-(3-fluorophenyl)ethyl]-3-(trifluoromethyl)-1H,4H,5H,6H-cyclopenta[c]pyrazol-4-ol] | > 1000 | 13 | < 100
O[C@H]1c2c(C(F)(F)F)nn([C@H]3C[C@@]4(CC4(F)F)C3)c2CC1(F)F [Example 64, (4S)-5,5-difluoro-1-[(3r,5r)-1,1-difluorospiro[2.3]hexan-5-yl]-3-(trifluoromethyl)-4,6-dihydrocyclopenta[c]pyrazol-4-ol] | > 1000 | 12 | < 100
O[C@H]1c2c(C(F)(F)F)nn(CCCC(F)(F)F)c2[C@@H](F)C1(F)F (single isomer, unassigned) [Example 123] | > 1000 | 12 | 100 to 1000
